Experimental data from patent US20220160703A1, “TUMOR-SELECTIVE COMBINATION THERAPY” (The Board of Regents of The University of Texas System, priority 2019, published 2022).

Assays:
[1] = test system: NQO1 positive tumor cell lines MC38, TC-1 and Ag104Ld; type: cell-based
Protocol: (§1) (FIG. 1A) NQO1 positive tumor cell lines MC38, TC-1 and Ag104Ld and NQO1 negative cell lines Panc02 and B16 grown in 48-well plates were treated with β-lap (0-8 μM) for a 3 hr followed by washing and replacing medium. Cell viability was determined by Sulforhodamine B (SRB) Assay 4 days later. […] (FIG. 1C) MC38 cells with CRISPR-based NQO1 Knockout (MC38 NQO1KO #5) planted in 96-well plates were exposed to β-lap for 3 hr and cell survival was assessed 48 hr later. […] (FIG. 1E) MC38 cells were exposed to a lethal dose of β-lap (4 μM) for indicated times, then stained with 7-AAD and Annexin V followed by flow cytometry analysis. […] (FIG. 1H) MC38 and B16 NQO1 #1 cells were exposed to β-lap for a 3 hr. Catalase (1000 U/ml) was added and cell survival was assessed 48 hr later. (FIG. 1I) C57BL/6 mice (n=5/group) were transplanted with MC38 cells and treated with β-lap (0.03 mg, 0.1 mg or 0.3 mg, intratumorally; or 25 mg/kg, i.v.) every other day for four times. […] Tumor growth was monitored twice a week.
(§2) (FIG. 8A) NQO1 expression in multiple murine tumor lines was immunoblotted as indicated. […] Drugs were removed and survival assessed 5 days later. (FIG. 8C) Relative H2O2 levels were assessed in various cells treated with β-lap for 3 h at the indicated doses using CellRox-Glo. […] (FIG. 8D) TC-1 cells exposure to β-lap for 12 h, later PARP-1 and Caspase-3 levels were analyzed by western blotting assay. […]
(FIGS. 14A-C) NQO1 cells MC38 (A) and TC-1 (B) and NQO1^− cells B16 (C) were treated for 2 h with various doses of IB-DNQ±DIC (50 μM). Drugs were removed and survival assessed 6 days later. […] (FIGS. 14E-F) Relative NAD^+ (E) or ATP (F) levels were assessed in TC-1 cells exposed to various doses of IB-DNQ for 2 h. […] Comet tail lengths in a.u. were monitored at indicated time; and DSBs quantified by γH2AX foci/nuclei using immunofluorescence at indicated time (FIG. 14H). […]
(FIG. 21A) Viability of murine cell lines following IB-DNQ treatment for 4 h. […] (FIGS. 21D-E) DNA double strand break was assessed via comet assay (FIG. 21D) and γH2AX foci/nuclei immunofluorescence (FIG. 21E). […]

[2] = test system: NQO1 negative cell lines Panc02 and B16; assay: Cell viability/survival of NQO1 negative murine tumor lines (SRB); type: cell-based; details: β-lap 0-8 μM, SRB 4 days later
Protocol: as §1, with “later.” for “later. (FIG. 1I) C57BL/6 mice (n=5/group) were transplanted with MC38 cells and treated with β-lap (0.03 mg, 0.1 mg or 0.3 mg, intratumorally; or 25 mg/kg, i.v.) every other day for four times.”
as §2
(FIGS. 14A-C) NQO1 cells MC38 (A) and TC-1 (B) and NQO1^− cells B16 (C) were treated for 2 h with various doses of IB-DNQ±DIC (50 μM). Drugs were removed and survival assessed 6 days later. […]

[3] = biological target: NQO1 (Homo sapiens, UniProt P15559); details: in ~2 min; cited from earlier work
Chain of NQO1 (P15559 whole entry, species assumed): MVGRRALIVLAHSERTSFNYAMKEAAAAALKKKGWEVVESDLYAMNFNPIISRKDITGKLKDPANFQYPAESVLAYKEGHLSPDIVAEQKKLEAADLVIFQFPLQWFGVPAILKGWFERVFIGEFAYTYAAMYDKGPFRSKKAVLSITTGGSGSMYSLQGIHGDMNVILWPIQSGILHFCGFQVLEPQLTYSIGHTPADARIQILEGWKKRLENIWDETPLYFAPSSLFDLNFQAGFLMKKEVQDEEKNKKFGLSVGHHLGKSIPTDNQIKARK

SMILES: CC1(C)CCC2=C(O1)c1ccccc1C(=O)C2=O [β-lap, β-lapachone]
- response to 3 h β-lap exposure (cell viability) ([1]; β-lap 0-8 μM, 3 hr, SRB 4 days later): sensitive
- cell killing ([1]; β-lap 3 h ± DIC 50 μM, survival 5 days later): selectively killed
- response to 3 h β-lap exposure (cell viability) [2]: resistant
- NAD(P)H consumed by one mole of drug [3]: ~60 mol
- superoxide generated by one mole of drug [3]: ~120 mol
